Test results taken from patent publication US20230116972A1, “CD38 MODULATORS AND METHODS OF USE THEREOF” (Cytokinetics, Inc., priority 2021, published 2023).
Like-named read-outs stand apart in the source and are kept apart here.

What was measured:
[1] = biological target: T1, CYP3A4 (Homo sapiens, UniProt P08684); experiment: direct inhibition of CYP450 in human liver microsomes (midazolam and testosterone probes); assay type: in vitro ADME
T1 construct: from tissue; host or cells: human liver microsomes (pooled in the time-dependent assay)
T1 sequence (P08684 whole entry): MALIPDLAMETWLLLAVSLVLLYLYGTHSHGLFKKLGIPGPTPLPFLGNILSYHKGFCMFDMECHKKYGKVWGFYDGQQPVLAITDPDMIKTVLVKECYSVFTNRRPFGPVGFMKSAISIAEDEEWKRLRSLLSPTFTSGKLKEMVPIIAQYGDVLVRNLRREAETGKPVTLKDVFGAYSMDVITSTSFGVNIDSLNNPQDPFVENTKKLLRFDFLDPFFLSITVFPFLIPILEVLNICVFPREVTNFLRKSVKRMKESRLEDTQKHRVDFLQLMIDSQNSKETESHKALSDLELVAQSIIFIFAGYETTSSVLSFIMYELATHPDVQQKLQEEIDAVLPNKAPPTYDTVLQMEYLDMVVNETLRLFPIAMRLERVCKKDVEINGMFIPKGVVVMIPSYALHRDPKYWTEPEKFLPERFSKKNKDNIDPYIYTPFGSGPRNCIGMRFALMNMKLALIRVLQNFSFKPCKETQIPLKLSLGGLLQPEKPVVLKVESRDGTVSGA
Protocol: (§1) Direct inhibition: […] A Perspective of the Pharmaceutical Research and Manufacturers of America”, Drug Metabolism and Disposition, 37 (7): 1355, 2009). For 3A4, the % activity was measured using both midazolam and testosterone as probes. Each compound at 3, 10, and 50 μM was incubated with HLM, NADPH and CYP isoenzyme specific probe substrates at 37° C. Inhibition of the probe substrate metabolism was quantified using LC/MS/MS. […] Known chemical inhibitors specific for the individual CYP isoenzymes were evaluated in parallel as positive controls and these compounds produced CYP inhibition consistent with published results (Walsky & Obach RS. “Validated assays for human cytochrome P450 activities”. Drug Metab Dispos. 32(6):647-60, 2004). Note that, in Tables 6 and 7, the “Compound No” corresponds to the compound numbers in Table 1.

[2] = biological target: T2, CYP2C19 (Homo sapiens, UniProt P33261); experiment: direct inhibition of CYP450 in human liver microsomes; assay type: in vitro ADME
T2 construct: from tissue; host or cells: human liver microsomes (pooled in the time-dependent assay)
T2 sequence (P33261 whole entry): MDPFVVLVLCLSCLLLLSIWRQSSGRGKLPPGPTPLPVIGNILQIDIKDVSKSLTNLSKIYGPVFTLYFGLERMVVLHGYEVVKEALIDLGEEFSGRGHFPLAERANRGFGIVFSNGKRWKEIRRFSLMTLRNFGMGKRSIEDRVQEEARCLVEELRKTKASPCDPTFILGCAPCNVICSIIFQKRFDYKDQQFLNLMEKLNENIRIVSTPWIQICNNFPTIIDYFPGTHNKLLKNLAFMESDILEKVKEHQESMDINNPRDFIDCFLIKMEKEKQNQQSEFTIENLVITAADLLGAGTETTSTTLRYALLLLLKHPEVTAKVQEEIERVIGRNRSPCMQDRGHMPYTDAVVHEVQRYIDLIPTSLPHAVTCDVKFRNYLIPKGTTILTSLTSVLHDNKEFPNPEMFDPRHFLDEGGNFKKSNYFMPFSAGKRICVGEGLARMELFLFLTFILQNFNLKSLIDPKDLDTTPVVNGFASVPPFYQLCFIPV
Protocol: as §1

[3] = biological target: T3, CYP2B6 (Homo sapiens, UniProt P20813); experiment: as above; assay type: in vitro ADME
T3 construct: from tissue; host or cells: human liver microsomes (pooled in the time-dependent assay)
T3 sequence (P20813 1-491): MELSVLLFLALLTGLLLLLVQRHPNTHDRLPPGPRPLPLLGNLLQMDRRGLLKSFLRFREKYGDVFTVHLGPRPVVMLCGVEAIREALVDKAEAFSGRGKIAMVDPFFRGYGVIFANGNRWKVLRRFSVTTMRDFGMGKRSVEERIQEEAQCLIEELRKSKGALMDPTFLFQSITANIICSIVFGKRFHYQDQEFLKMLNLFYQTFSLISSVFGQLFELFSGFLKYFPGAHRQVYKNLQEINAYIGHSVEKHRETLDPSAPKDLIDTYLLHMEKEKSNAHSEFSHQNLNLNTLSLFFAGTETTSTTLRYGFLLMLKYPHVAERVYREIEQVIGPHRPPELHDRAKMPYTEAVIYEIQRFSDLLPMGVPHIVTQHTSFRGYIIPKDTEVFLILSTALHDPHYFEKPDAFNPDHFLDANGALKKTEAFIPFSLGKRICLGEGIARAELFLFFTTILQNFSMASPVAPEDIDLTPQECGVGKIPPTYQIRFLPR
Protocol: as §1

[4] = biological target: T4, CYP1A2 (Homo sapiens, UniProt P05177); experiment: as above; assay type: in vitro ADME; settings: human liver microsomes
T4 construct: from tissue; host or cells: human liver microsomes (pooled in the time-dependent assay)
T4 sequence (P05177 1-516): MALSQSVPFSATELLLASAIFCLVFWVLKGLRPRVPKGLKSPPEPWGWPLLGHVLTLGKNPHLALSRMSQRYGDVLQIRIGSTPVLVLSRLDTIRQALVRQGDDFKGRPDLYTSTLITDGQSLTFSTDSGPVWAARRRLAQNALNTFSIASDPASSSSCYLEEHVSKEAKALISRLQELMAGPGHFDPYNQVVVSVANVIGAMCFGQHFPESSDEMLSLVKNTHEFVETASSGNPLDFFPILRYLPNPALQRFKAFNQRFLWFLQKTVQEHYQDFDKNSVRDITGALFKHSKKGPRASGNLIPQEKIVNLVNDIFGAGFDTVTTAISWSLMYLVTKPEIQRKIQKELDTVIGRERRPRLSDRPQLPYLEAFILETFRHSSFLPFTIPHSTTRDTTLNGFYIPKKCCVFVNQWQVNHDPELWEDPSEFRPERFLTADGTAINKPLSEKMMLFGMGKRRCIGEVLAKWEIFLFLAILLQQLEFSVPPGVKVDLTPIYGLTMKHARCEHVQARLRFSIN
Protocol: as §1

[5] = biological target: T5, CYP2C9 (Homo sapiens, UniProt P11712); experiment: as above; assay type: in vitro ADME
T5 construct: from tissue; host or cells: human liver microsomes (pooled in the time-dependent assay)
T5 sequence (P11712 whole entry): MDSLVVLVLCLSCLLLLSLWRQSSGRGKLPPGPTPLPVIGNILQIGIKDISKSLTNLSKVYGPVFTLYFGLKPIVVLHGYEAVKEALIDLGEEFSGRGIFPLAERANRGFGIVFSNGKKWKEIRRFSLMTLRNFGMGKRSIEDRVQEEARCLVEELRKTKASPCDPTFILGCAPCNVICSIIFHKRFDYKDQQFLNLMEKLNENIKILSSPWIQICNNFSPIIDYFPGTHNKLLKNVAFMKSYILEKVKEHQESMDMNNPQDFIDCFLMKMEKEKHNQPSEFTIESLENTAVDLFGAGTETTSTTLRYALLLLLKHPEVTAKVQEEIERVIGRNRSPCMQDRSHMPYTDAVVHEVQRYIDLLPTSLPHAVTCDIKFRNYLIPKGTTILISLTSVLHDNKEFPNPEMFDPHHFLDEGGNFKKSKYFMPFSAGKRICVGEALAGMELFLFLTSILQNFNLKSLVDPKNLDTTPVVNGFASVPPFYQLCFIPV
Protocol: as §1

[6] = biological target: T6, endogenous CD38 in HL60 cells (Homo sapiens, UniProt P28907); experiment: cellular CD38 assay in HL60 cells (cellular NAD levels); assay type: cell-based; settings: all-trans retinoic acid, 24 hours, read-out: hCD38 HL60 ATRA NAD Cell Diaphorase IC50
T6 construct: endogenous in cells; host or cells: HL60 (leukemic cells, treated with all-trans retinoic acid)
T6 sequence (P28907 1-300): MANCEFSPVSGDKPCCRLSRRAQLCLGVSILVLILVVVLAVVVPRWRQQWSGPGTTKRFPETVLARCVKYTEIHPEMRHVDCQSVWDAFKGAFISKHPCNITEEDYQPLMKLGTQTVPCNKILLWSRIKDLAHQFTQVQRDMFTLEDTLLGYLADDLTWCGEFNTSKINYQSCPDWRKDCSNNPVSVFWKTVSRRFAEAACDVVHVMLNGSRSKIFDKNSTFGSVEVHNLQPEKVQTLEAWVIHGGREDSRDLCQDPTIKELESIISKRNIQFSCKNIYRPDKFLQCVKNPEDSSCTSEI
Procedure, shortened: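 HL60 cells (20000/well) were treated with compound in DMSO for 24 h. Cellular NAD was then measured by an enzymatic cycling mix (alcohol dehydrogenase, diaphorase, 40 uM resazurin, 10 uM FMN, 3% ethanol, Triton X-100, pH 8.4).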

[7] = midazolam probe, read-out: CYP3A4-M T0 % activity
[8] = testosterone probe, read-out: CYP3A4-T T0 % activity

- activity at 3 µM [1, 7]: 93%
- activity at 3 µM [1, 8]: 98%
- activity at 10 µM [1, 7]: 92%
- activity at 10 µM [1, 8]: 96%
- activity at 50 µM [1, 7]: 79%
- activity at 50 µM [1, 8]: 79%
- IC50 ([1]; midazolam probe, read-out: CYP3A4-M T0 estimated IC50): > 50 µM
- IC50 ([1]; testosterone probe, read-out: CYP3A4-T T0 estimated IC50): > 50 µM
- activity at 3 µM ([2]; 3 uM, % of non-inhibited control, read-out: CYP2C19 T0 % activity): 92%
- activity at 10 µM ([2]; 10 uM, % of non-inhibited control, read-out: CYP2C19 T0 % activity): 85%
- activity at 50 µM ([2]; 50 uM, % of non-inhibited control, read-out: CYP2C19 T0 % activity): 39%
- IC50 ([2]; estimated from 3, 10, 50 uM, read-out: CYP2C19 T0 estimated IC50): < 50 µM
- activity at 3 µM ([3]; 3 uM, % of non-inhibited control, read-out: CYP2B6 T0 % activity): 95%
- activity at 10 µM ([3]; 10 uM, % of non-inhibited control, read-out: CYP2B6 T0 % activity): 80%
- activity at 50 µM ([3]; 50 uM, % of non-inhibited control, read-out: CYP2B6 T0 % activity): 53%
- IC50 ([3]; estimated from 3, 10, 50 uM, read-out: CYP2B6 T0 estimated IC50): > 50 µM
- activity at 3 µM ([4]; 3 uM, % of non-inhibited control, read-out: CYP1A2 T0 % activity): 96%
- activity at 10 µM ([4]; 10 uM, % of non-inhibited control, read-out: CYP1A2 T0 % activity): 96%
- activity at 50 µM ([4]; 50 uM, % of non-inhibited control, read-out: CYP1A2 T0 % activity): 85%
- IC50 ([4]; estimated from 3, 10, 50 uM, read-out: CYP1A2 T0 estimated IC50): > 50 µM
- activity at 3 µM ([5]; 3 uM, % of non-inhibited control, read-out: CYP2C9 T0 % activity): 101%
- activity at 10 µM ([5]; 10 uM, % of non-inhibited control, read-out: CYP2C9 T0 % activity): 96%
- activity at 50 µM ([5]; 50 uM, % of non-inhibited control, read-out: CYP2C9 T0 % activity): 69%
- IC50 ([5]; estimated from 3, 10, 50 uM, read-out: CYP2C9 T0 estimated IC50): > 50 µM
- IC50 [6]: 2630 nM
Structure (SMILES): CO[C@H]1CC[C@H](NC(=O)c2cc(C3CCOCC3)nc(-c3cncn3C)n2)CC1 [Compound 199, N-((1r,4r)-4-methoxycyclohexyl)-2-(1-methyl-1H-imidazol-5-yl)-6-(tetrahydro-2H-pyran-4-yl)pyrimidine-4-carboxamide]
